# Data taken from US20110165173A1, “THERAPEUTIC AGENT AND DETECTION REAGENT FOR ARTERIOSCLEROTIC DISEASE WHICH TARGETS FOR SALUSIN” (PROTEINEXPRESS CO., LTD., priority 2007, published 2011).
# Assays:
# [1] = test system: human monocyte-derived macrophages; test: Cholesterol esterification assay: foaming of human monocyte-derived macrophages caused by AcLDL; format: cell-based; conditions: 0.6 nM; 5 μg/mL AcLDL added on Day 7
# Description: Cholesterol esterification assay was employed as a method for assaying foaming of macrophages [Goldstein J L et al., Methods Enzymol. 1983; 98: 241-260]. Macrophages cause acetylated LDL (AcLDL) to be incorporated into cells via scavenger receptors so as to result in lysosome degradation. Free cholesterol produced in a lysosome is transferred to ACAT and converted into cholesterol ester as a result of ACAT reaction. If [^3H]oleate is added to a medium, [^3H]oleate is incorporated into cells and converted into [^3H]oleoyl-CoA by acyl CoA synthase. ACAT produces cholesterol [^3H]oleate with the use of as substrates, AcLDL-derived free cholesterol and [^3H]oleoyl-CoA obtained as above. The radioactivity of cholesterol [^3H]oleate accumulated in cells can serve as a sensitive indicator for cholesterol ester accumulation (FIG. 7).
# LDL (d=1.019-1.063) was purified from human blood plasma by sequential flotation ultracentrifugation [Schumaker VN et al., Methds Enzymol. 1986; 128: 155-170]. […] The volume of the obtained blood plasma fraction from which chylomicron and VLDL had been removed was measured with a volumetric flask. […]
# Equivalent volumes of LDL (protein: 30 mg) (15 mL if 2.0 mg protein/mL) and saturated sodium acetate were mixed together. […] At this time, pH was monitored with a pH meter with the dropwise addition of 5 N NaOH thereto such that the pH could be maintained at more than 6.5. […]
# [2] = target: T1, mouse mas-like G protein-coupled receptor Al (mMrgA 1) (Mus musculus, UniProt Q91WW5); conditions: HEK293T cells expressing mMrgA1; Wang Z et al., Eur J Pharmacol. 2006; cited from earlier work
# T1 construct: host or cells: HEK293T cells (heterologous expression, reported by Wang et al., Eur J Pharmacol 2006)
# T1 sequence (Q91WW5 1-304): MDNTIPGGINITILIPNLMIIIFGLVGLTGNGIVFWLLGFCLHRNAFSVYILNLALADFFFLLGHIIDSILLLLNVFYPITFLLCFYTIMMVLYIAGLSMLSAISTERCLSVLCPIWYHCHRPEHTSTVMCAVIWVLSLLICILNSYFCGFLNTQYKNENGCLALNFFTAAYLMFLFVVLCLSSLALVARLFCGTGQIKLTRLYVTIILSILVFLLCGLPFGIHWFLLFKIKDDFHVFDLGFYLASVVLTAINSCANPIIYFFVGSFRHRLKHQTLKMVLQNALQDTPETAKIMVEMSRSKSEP
Substance,"accumulation of cholesterol [3H]oleate caused by AcLDL, percent of loaded control cells [1]",ligand for mMrgA1 [2],accumulation of cholesterol [3H]oleate caused by AcLDL relative to control cells [1]
"salusin-α: peptide (SEQ ID NO: 1) comprising 28 amino acid residues, generated by processing from preprosalusin (SGALPPAPAAPRPALRAQRAGPAGPGAK; listed as Homo sapiens)",50%,does not serve as a ligand,–
"salusin-β: peptide (SEQ ID NO: 3) comprising 20 amino acid residues, generated by processing from preprosalusin (AIFIFIRWLLKLGHHGRAPP; listed as Homo sapiens) [reference compound]",–,regarded as a ligand,1.6 times
